The values that follow come from ChEMBL document CHEMBL1147637, “Synthesis and biological activity of selective azasugar-based TACE inhibitors” (Bioorg Med Chem Lett, 2004).

A value given as a limit tells only on which side of the number the result lay.

The term Ki denotes the equilibrium dissociation constant of an inhibitor or competing ligand from its target.

One assay concerns the target Stromelysin-1 (Homo sapiens, UniProt P08254). The assay can be described thus: Inhibition of recombinant human matrix metalloprotease-3.
Assay [1] addresses Matrix metalloproteinase-9 (Homo sapiens, UniProt P14780). The assay can be described thus: Inhibition of recombinant human matrix metalloprotease-9.
Assay [2] has as its target Disintegrin and metalloproteinase domain-containing protein 17 (Homo sapiens, UniProt P78536). The experiment in a line: Inhibition of recombinant human TNF-alpha converting enzyme.
The target of the next assay is T1, Interstitial collagenase (Homo sapiens, UniProt P03956).
T1 sequence (P03956 whole entry): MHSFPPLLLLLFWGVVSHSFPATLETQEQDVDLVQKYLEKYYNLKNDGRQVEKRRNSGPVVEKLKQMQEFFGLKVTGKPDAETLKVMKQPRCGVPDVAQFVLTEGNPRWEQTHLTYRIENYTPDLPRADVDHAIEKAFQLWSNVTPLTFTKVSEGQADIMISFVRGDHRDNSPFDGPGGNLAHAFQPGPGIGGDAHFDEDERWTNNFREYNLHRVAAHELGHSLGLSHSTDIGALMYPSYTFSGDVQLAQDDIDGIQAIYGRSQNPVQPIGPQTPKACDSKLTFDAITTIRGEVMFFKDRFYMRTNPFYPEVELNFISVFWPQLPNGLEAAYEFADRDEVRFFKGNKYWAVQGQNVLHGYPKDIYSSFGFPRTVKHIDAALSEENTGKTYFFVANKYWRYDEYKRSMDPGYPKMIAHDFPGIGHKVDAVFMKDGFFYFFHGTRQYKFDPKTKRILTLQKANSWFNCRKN
The assay can be described thus: Inhibition of recombinant human matrix metalloprotease-1.

Sequence of Stromelysin-1 (P08254 whole entry): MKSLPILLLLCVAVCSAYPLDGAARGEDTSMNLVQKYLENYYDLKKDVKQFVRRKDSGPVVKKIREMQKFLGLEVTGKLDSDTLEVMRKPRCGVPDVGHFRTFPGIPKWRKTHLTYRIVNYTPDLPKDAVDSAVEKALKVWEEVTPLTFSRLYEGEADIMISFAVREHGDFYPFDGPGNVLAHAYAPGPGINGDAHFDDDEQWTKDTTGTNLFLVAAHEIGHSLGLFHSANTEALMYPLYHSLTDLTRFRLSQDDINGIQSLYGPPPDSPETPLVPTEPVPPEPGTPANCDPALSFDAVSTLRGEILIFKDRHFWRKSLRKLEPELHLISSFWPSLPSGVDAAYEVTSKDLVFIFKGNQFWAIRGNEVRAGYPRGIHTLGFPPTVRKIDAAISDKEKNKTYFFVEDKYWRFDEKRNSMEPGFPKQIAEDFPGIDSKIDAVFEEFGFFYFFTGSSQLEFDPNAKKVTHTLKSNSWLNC
Sequence of Disintegrin and metalloproteinase domain-containing protein 17 (P78536 whole entry, the tested form may be a part): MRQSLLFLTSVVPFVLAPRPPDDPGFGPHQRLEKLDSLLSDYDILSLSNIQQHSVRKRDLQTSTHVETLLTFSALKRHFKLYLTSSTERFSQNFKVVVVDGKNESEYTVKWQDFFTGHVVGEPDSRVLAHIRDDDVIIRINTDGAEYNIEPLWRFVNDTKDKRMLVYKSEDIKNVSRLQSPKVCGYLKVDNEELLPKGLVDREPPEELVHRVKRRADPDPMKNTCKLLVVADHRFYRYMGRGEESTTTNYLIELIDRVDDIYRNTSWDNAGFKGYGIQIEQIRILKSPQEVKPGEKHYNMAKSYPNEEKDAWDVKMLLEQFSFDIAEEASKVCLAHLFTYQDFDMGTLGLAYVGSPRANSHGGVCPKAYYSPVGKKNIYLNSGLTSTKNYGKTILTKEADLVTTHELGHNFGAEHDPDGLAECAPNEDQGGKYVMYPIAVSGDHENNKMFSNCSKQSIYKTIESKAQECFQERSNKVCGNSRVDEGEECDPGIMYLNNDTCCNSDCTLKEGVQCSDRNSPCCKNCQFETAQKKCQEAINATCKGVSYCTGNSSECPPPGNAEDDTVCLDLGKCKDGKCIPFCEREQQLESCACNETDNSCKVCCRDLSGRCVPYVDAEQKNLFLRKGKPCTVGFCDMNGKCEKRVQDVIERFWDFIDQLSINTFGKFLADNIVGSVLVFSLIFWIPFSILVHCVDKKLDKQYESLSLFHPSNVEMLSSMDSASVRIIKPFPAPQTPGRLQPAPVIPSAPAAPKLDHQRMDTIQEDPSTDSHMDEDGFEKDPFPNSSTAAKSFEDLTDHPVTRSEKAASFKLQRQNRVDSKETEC
Sequence of Matrix metalloproteinase-9 (P14780 whole entry, the tested form may be a part): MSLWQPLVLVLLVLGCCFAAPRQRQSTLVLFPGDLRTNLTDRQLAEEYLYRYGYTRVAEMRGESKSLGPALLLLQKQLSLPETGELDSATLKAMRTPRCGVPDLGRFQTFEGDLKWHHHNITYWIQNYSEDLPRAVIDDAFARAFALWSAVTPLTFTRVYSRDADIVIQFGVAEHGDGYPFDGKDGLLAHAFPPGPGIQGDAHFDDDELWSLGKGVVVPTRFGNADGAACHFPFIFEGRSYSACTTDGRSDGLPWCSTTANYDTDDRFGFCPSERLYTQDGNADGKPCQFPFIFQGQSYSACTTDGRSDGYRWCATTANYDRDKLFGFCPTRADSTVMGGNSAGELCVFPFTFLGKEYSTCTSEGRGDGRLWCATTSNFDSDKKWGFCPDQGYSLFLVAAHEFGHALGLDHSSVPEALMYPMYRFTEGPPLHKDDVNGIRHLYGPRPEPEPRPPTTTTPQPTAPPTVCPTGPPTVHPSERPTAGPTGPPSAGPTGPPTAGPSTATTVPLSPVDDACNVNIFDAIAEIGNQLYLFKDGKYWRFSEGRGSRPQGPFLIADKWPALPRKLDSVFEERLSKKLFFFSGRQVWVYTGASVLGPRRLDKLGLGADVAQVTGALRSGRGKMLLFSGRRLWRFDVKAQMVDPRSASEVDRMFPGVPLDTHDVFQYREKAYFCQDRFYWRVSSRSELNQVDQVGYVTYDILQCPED

`CC#CCOc1ccc(S(=O)(=O)N2C[C@@H](O)[C@H]3OC(C)(C)O[C@@H]3[C@@H]2C(=O)NO)cc1`: the Ki is 0.0581 µM on Stromelysin-1, 0.118 µM in assay [1], 0.00185 µM in assay [2] and > 0.85 µM at Interstitial collagenase.

Consider `CC#CCOc1ccc(S(=O)(=O)N2C[C@@H](O)[C@@H](O)[C@H](O)[C@@H]2C(=O)NO)cc1`, for which the results for the Ki (on Stromelysin-1; in assay [1]; on Interstitial collagenase) were 0.0033 µM, 0.0142 µM and 0.128 µM, respectively.

With `CC#CCOc1ccc(S(=O)(=O)N2C[C@H]3OC(C)(C)O[C@H]3[C@H](O)[C@@H]2C(=O)NO)cc1`, the Ki on Stromelysin-1 is 0.0296 µM; in assay [1] it was 0.0778 µM; in assay [2] it was 0.00057 µM; at Interstitial collagenase it was > 0.85 µM.

Regarding `CC#CCOc1ccc(S(=O)(=O)N2C[C@H]3OC(C)(C)O[C@H]3[C@H](OC)[C@@H]2C(=O)NO)cc1`, the Ki at Stromelysin-1 is 0.0115 µM; in assay [1] it was 0.0982 µM; in assay [2], 0.00084 µM; at Interstitial collagenase it was 0.552 µM.

In the case of `CC#CCOc1ccc(S(=O)(=O)N2C[C@@H](O)[C@@H](O)[C@H](OC)[C@@H]2C(=O)NO)cc1`, the Ki at Stromelysin-1 is 0.00043 µM; in assay [1], 0.012 µM; in assay [2], 0.00185 µM; on Interstitial collagenase, 0.09 µM.
